ChEMBL document CHEMBL1145498, “A systematic interaction map of validated kinase inhibitors with Ser/Thr kinases” (Proc Natl Acad Sci U S A, 2007)

Experiments:
[1] = molecular target: STE20-like serine/threonine-protein kinase (Homo sapiens) (UniProt Q9H2G2)
[2] = molecular target: Dual specificity protein kinase CLK1 (Homo sapiens) (UniProt P49759)
[3] = molecular target: Ribosomal protein S6 kinase alpha-3 (Homo sapiens) (UniProt P51812)
[4] = molecular target: Cyclin-dependent kinase 6 (Homo sapiens) (UniProt Q00534)
[5] = molecular target: Serine/threonine-protein kinase pim-2 (Homo sapiens, UniProt Q9P1W9)
[6] = molecular target: Serine/threonine-protein kinase PAK 5 (Homo sapiens) (UniProt Q9P286)
[7] = molecular target: Serine/threonine-protein kinase 16 (Homo sapiens) (UniProt O75716)
[8] = molecular target: Serine/threonine-protein kinase 38 (Homo sapiens) (UniProt Q15208)
[9] = molecular target: Ribosomal protein S6 kinase alpha-3 (Homo sapiens) (UniProt P51812); remark: listed apart in the source
[10] = molecular target: Calcium/calmodulin-dependent protein kinase type 1G (Homo sapiens) (UniProt Q96NX5)
[11] = molecular target: Casein kinase I isoform gamma-1 (Homo sapiens) (UniProt Q9HCP0)
[12] = molecular target: Mitogen-activated protein kinase 6 (Homo sapiens) (UniProt Q16659)
[13] = molecular target: Serine/threonine-protein kinase 26 (Homo sapiens) (UniProt Q9P289)
[14] = molecular target: Serine/threonine-protein kinase Chk2 (Homo sapiens, UniProt O96017)
[15] = molecular target: Cyclin-dependent kinase 16 (Homo sapiens) (UniProt Q00536)
[16] = molecular target: Calcium/calmodulin-dependent protein kinase kinase 2 (Homo sapiens, UniProt Q96RR4)
[17] = molecular target: T1, Serine/threonine-protein kinase VRK3 (Homo sapiens) (UniProt Q8IV63)
T1 sequence (whole entry): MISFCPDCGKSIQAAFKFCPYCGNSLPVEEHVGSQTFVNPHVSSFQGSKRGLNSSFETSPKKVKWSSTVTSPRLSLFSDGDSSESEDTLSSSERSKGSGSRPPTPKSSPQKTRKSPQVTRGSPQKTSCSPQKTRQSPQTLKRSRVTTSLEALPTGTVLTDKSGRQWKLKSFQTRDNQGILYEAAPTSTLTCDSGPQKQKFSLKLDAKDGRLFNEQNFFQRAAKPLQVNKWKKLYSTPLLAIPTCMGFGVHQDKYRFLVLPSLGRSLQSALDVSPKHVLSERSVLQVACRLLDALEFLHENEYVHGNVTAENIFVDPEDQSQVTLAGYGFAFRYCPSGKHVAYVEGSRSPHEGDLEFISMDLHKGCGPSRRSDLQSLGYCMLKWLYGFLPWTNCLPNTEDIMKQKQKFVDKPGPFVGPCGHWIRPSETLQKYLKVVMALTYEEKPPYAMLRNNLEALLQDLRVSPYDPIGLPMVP

[18] = molecular target: Dual specificity protein kinase CLK3 (Homo sapiens) (UniProt P49761)
[19] = molecular target: T2, Serine/threonine-protein kinase 4 (Homo sapiens) (UniProt Q13043)
T2 sequence (whole entry): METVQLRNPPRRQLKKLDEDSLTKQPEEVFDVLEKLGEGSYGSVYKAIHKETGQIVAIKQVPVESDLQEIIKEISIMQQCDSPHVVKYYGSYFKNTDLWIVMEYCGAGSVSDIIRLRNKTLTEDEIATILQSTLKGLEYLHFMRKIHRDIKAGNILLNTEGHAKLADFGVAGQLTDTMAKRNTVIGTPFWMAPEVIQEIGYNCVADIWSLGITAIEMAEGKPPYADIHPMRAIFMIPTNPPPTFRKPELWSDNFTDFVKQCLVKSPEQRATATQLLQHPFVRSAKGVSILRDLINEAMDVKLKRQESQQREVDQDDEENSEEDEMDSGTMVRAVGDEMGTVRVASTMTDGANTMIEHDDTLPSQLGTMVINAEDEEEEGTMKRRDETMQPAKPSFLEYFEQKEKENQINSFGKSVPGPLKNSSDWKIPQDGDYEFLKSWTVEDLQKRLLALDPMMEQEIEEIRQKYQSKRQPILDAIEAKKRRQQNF

[20] = molecular target: Dual specificity protein kinase CLK2 (Homo sapiens) (UniProt P49760)
[21] = molecular target: Serine/threonine-protein kinase OSR1 (Homo sapiens) (UniProt O95747)
Sequence of Serine/threonine-protein kinase OSR1 (Homo sapiens) (O95747 2-527 limits assumed): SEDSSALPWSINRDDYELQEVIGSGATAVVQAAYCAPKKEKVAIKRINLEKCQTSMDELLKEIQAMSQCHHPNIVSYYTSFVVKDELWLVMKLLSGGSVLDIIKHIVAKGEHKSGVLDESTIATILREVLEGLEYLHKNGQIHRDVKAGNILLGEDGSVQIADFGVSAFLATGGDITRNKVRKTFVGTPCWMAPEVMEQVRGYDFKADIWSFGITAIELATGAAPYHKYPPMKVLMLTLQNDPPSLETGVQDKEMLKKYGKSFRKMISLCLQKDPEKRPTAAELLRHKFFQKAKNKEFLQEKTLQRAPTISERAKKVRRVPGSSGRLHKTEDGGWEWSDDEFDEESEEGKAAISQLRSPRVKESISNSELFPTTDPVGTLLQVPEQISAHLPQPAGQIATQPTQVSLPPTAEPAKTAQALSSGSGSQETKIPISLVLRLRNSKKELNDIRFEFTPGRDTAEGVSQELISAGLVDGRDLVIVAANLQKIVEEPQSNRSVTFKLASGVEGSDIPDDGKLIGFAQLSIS

Sequence of Cyclin-dependent kinase 6 (Homo sapiens) (Q00534 whole entry): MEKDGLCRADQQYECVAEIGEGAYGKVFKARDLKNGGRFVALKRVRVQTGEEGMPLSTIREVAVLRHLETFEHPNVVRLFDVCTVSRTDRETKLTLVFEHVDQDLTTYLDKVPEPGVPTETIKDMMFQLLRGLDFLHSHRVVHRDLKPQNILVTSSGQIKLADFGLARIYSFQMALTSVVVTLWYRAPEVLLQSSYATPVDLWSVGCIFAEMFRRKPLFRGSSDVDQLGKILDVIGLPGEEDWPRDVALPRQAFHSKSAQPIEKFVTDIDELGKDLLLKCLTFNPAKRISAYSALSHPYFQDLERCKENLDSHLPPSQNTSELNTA
Sequence of Dual specificity protein kinase CLK1 (Homo sapiens) (P49759 whole entry, looked up): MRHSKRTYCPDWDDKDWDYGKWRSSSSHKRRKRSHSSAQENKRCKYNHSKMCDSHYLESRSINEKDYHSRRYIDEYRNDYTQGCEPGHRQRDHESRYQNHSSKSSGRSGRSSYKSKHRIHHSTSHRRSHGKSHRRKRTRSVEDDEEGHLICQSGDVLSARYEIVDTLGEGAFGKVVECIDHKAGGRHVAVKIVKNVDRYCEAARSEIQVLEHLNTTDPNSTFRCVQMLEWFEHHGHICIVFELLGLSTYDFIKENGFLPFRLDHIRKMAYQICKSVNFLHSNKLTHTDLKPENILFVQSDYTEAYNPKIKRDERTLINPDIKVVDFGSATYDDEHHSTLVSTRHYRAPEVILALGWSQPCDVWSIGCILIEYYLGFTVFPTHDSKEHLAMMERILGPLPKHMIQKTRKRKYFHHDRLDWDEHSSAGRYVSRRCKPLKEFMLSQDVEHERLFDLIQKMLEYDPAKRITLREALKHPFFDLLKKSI
Sequence of Mitogen-activated protein kinase 6 (Homo sapiens) (Q16659 whole entry): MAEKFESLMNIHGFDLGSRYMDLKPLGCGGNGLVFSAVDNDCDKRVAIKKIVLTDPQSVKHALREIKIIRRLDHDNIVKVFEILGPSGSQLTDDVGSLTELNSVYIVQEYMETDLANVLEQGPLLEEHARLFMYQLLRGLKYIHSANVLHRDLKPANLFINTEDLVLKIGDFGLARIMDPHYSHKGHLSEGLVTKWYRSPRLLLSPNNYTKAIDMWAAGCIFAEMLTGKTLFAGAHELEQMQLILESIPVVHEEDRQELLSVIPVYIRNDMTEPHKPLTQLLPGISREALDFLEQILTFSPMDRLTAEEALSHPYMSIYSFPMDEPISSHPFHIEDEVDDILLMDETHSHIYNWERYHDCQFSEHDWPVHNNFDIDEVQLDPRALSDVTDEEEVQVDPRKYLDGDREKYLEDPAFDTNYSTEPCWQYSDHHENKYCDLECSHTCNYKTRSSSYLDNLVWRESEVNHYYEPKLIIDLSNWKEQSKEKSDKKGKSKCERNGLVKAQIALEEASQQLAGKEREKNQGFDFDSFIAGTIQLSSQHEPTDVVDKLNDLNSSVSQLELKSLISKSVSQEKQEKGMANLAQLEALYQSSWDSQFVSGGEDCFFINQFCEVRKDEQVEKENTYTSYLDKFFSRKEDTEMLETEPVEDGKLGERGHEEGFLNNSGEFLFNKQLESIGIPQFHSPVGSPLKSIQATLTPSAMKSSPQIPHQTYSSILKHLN
Sequence of Casein kinase I isoform gamma-1 (Homo sapiens) (Q9HCP0 whole entry, looked up, canonical isoform): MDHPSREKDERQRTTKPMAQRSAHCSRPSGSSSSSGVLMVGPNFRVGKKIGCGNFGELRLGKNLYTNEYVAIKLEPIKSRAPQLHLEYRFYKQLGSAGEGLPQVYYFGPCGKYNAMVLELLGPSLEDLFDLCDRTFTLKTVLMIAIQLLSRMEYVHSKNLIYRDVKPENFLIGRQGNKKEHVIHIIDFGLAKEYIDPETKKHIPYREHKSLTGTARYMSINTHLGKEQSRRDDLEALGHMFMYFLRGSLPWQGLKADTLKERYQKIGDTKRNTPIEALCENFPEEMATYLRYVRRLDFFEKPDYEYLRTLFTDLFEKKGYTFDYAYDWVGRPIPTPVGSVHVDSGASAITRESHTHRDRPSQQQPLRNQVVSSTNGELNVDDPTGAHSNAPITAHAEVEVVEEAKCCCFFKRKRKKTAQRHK
Sequence of Serine/threonine-protein kinase PAK 5 (Homo sapiens) (Q9P286 whole entry, looked up): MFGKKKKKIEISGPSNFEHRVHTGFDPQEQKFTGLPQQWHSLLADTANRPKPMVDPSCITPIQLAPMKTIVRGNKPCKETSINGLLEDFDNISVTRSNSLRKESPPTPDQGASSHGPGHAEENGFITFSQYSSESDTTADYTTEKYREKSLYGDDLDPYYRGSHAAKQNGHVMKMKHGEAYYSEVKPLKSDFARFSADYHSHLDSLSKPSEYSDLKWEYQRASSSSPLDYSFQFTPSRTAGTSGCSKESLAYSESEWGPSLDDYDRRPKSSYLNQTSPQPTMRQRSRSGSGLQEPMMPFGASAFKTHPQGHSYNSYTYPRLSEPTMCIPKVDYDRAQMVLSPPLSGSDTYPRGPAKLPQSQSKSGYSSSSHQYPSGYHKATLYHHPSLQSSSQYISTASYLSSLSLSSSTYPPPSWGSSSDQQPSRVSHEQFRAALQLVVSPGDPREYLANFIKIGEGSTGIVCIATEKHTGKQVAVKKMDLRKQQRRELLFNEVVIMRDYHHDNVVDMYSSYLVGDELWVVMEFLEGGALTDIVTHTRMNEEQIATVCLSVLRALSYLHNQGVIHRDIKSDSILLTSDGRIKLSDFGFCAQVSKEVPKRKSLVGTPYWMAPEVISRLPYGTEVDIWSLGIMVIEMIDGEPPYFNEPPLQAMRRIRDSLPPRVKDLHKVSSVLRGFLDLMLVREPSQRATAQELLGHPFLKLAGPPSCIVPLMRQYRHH
Sequence of Calcium/calmodulin-dependent protein kinase type 1G (Homo sapiens) (Q96NX5 whole entry, canonical isoform): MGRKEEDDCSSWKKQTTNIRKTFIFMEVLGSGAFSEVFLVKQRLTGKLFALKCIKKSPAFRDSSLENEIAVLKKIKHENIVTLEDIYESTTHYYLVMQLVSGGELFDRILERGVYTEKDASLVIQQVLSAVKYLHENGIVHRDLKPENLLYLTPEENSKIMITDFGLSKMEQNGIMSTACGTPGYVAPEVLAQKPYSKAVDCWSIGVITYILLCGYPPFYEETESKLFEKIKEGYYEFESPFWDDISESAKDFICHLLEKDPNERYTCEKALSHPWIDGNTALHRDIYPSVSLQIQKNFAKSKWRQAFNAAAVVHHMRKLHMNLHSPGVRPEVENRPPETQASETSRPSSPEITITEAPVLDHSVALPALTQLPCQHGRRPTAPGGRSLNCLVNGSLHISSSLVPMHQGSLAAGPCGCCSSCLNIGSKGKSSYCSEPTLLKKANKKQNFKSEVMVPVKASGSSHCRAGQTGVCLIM
Sequence of Calcium/calmodulin-dependent protein kinase kinase 2 (Q96RR4 2-588 limits assumed): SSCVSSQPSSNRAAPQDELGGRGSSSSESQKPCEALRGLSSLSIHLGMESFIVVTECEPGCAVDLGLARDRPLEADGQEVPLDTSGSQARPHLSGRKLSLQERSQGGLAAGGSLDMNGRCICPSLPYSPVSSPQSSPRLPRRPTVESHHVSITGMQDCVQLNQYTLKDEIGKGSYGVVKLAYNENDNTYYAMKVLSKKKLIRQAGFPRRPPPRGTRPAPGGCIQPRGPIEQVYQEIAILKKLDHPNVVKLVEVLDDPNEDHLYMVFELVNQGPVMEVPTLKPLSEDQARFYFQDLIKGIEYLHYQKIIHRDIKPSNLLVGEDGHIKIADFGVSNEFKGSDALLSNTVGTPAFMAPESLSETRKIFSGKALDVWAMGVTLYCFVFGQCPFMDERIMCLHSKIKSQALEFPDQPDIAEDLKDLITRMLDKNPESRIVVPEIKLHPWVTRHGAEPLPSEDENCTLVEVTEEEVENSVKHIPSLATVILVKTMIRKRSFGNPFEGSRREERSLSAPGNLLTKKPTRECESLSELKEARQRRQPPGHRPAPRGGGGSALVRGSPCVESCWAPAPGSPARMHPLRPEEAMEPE
Sequence of Serine/threonine-protein kinase 16 (Homo sapiens) (O75716 whole entry): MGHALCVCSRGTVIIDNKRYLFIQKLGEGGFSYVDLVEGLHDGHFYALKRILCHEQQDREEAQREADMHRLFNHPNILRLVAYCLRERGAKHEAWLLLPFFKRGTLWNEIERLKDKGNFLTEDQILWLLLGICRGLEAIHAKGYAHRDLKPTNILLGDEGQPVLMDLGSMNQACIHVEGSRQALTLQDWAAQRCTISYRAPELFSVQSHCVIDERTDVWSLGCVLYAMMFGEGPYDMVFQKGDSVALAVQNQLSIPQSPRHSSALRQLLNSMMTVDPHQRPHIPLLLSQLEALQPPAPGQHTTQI
Sequence of Serine/threonine-protein kinase pim-2 (Q9P1W9 whole entry, looked up): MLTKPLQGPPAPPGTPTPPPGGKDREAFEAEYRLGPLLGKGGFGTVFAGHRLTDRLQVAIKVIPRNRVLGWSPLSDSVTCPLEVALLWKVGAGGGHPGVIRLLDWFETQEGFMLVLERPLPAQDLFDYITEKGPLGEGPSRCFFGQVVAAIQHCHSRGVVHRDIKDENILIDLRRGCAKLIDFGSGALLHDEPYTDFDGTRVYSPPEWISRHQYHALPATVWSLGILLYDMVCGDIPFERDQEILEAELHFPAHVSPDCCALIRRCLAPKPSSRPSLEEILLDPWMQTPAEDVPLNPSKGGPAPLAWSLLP

Row | SMILES | ΔTm [1] [°C] | ΔTm [2] [°C] | ΔTm [3] [°C] | ΔTm [4] [°C] | ΔTm [5] [°C] | ΔTm [6] [°C] | ΔTm [7] [°C] | ΔTm [8] [°C] | ΔTm [9] [°C] | ΔTm [10] [°C] | ΔTm [11] [°C] | ΔTm [12] [°C] | ΔTm [13] [°C] | ΔTm [14] [°C] | ΔTm [15] [°C] | ΔTm [16] [°C] | ΔTm [17] [°C] | ΔTm [18] [°C] | ΔTm [19] [°C] | ΔTm [20] [°C] | also measured
1 | Ic1cccc(CSc2nnc(-c3ccncc3)o2)c1 | -0.4 | 1.7 | -0.6 | -0.2 | 0.1 | -0.2 | 0.2 | 0.8 | 0 | -0.7 | 0.6 | -0.2 | -0.6 | -0.9 | -0.8 | -0.6 | -0.1 | 1.5 | -0.4 | 1.7 | ΔTm [21]: -0.7 °C
2 | CC(C)c1cc(/C=C(\C#N)C(=O)NCCCc2ccccc2)cc(C(C)C)c1O | 1.2 | 2.8 | 1 | 0.3 | 0.7 | 0.7 | 0.5 | 0.7 | 0.2 | 2.8 | 0.8 | 1.3 | 2.5 | -0.1 | -0.1 | 1 | 0.8 | 1.2 | 2.6 | 1.3 | ΔTm [21]: 0.9 °C
3 | COC1=C2C[C@@H](C)C[C@H](OC)[C@H](O)[C@@H](C)/C=C(\C)[C@H](OC(N)=O)[C@@H](OC)/C=C\C=C(/C)C(=O)NC(=CC1=O)C2=O | 1.7 | 0.6 | 0.2 | 0.1 | -0.1 | 0 | 0.4 | 0.2 | -0.3 | 0.2 | 0.5 | 0.1 | -0.3 | 0.2 | -0.4 | -0.6 | -0.7 | -0.1 | 0.1 | -0.1 | ΔTm [21]: 0.8 °C
4 | O=C(O)/C=C/c1cc(CO)ccc1CO | 0 | 0.2 | 0.3 | 0.3 | 1.6 | -4.4 | 0.3 | 0.1 | 0.3 | 0 | 0.7 | 0.3 | 0.2 | 0.6 | -0.2 | 0.1 | 0.2 | 0 | 0 | 0.6 | ΔTm [21]: 0.5 °C
5 | O=C1NC(=O)C(c2c[nH]c3ccccc23)=C1c1c[nH]c2ccccc12 | 4.6 | 4.1 | 3.6 | 1.2 | 4 | 0.6 | 3.5 | 0.5 | 1 | 1 | 0.6 | 0.5 | 3.7 | 2.6 | 1.7 | -0.4 | 1.2 | 2.5 | 4.1 | 2.5 | ΔTm [21]: 2 °C
6 | O=C1Nc2cc(Br)ccc2/C1=C1/Nc2ccccc2/C1=N\O | 4.4 | 0 | 0.8 | -0.1 | 0.4 | 4.6 | 7.6 | 2.6 | 4.6 | -0.8 | 3.5 | -0.2 | 4.1 | 2.3 | -1.7 | 6.3 | 1.3 | -0.8 | 4.4 | 1.9 | ΔTm [21]: 0.6 °C
7 | Nc1ncnc2c1c(I)cn2[C@@H]1O[C@H](CO)[C@@H](O)[C@H]1O | 4.2 | 9.5 | 1.7 | -0.2 | 1 | 0.7 | 3.9 | 1.7 | 1.4 | 0.2 | 2.5 | -0.1 | 2.1 | 0.9 | 0.1 | 2 | 0.1 | 7.3 | 4.7 | 5.6 | ΔTm [21]: 2.4 °C
8 | CC(C)n1cnc2c(NCc3ccccc3O)nc(NCCCO)nc21 | 0 | 0.9 | 0.9 | 0 | 0.1 | 0.2 | 1.2 | 0.3 | 0.7 | 0.1 | 0.5 | 0 | 0.3 | -0.4 | -0.2 | 0.2 | 0.1 | 0.1 | 0.3 | 1 | ΔTm [21]: 0.3 °C

The next lines start with results.

Row | ΔTm [1] [°C] | ΔTm [2] [°C] | ΔTm [3] [°C] | ΔTm [4] [°C] | ΔTm [5] [°C] | ΔTm [6] [°C] | ΔTm [7] [°C] | ΔTm [8] [°C] | ΔTm [9] [°C] | ΔTm [10] [°C] | ΔTm [11] [°C] | ΔTm [12] [°C] | ΔTm [13] [°C] | ΔTm [14] [°C] | ΔTm [15] [°C] | ΔTm [16] [°C] | ΔTm [17] [°C] | ΔTm [18] [°C] | ΔTm [19] [°C] | ΔTm [20] [°C] | SMILES | also measured
9 | 10.6 | 9.6 | 10 | 3.2 | 5.6 | 1.9 | 3.9 | 0.8 | 2.1 | 3.1 | 0.6 | 0 | -0.6 | 7 | 5.3 | 0.1 | 0.8 | 4.1 | 7.4 | 5.1 | Cn1cc(C2=C(c3cn(CCCSC(=N)N)c4ccccc34)C(=O)NC2=O)c2ccccc21 | ΔTm [21]: -0.5 °C
10 | 0.3 | 0.6 | 0.1 | -0.4 | 0.1 | 0.8 | 0.3 | 0 | -0.6 | 0.1 | 0.4 | 0.5 | 0.9 | 1.4 | -0.1 | -0.3 | 0.2 | 0 | -0.1 | 0 | Oc1cccc(-c2nc(N3CCOCC3)c3oc4ncccc4c3n2)c1 | ΔTm [21]: 2 °C
11 | -0.5 | 0.1 | -1 | -0.3 | 0.7 | -0.3 | 0.5 | -0.4 | 0.3 | -0.1 | 0.6 | -0.4 | -0.1 | 0 | 0.1 | 0.8 | 0.1 | 0.2 | -0.6 | -0.1 | O=C(O)c1cc(NCc2cc(O)ccc2O)ccc1O | ΔTm [21]: 0 °C
12 | 7.8 | 0.7 | 1.3 | 0.6 | 0.6 | 0.2 | 3.1 | 0.5 | 5.3 | 1 | 0.5 | 0.8 | 1.2 | 3.1 | -0.3 | 0.7 | 0.6 | 0.8 | 1.6 | 0 | COc1cc2ncnc(Nc3ccc(F)c(Cl)c3)c2cc1OCCCN1CCOCC1 | ΔTm [21]: 0.2 °C
